Test results as given in article PMC12144414 (iScience, 2025).
Peptide text beside a SMILES is read from it.

Key:
[1] = Regional cerebral blood flow; type: in vivo, mouse; settings: 60 nmol GAI-17, during ischemia-reperfusion; n = 4
[2] = Levels of pyruvate in the brain; type: in vivo, mouse; settings: GAI-17 treatment; data not shown
Human recombinant GAPDH = Human recombinant GAPDH (Homo sapiens, UniProt P04406); assay: GAI peptide inhibition of GAPDH aggregation; type: biochemical; settings: read-out: Potency: Aggregation inhibitory activity (%); SD
Sequence of Human recombinant GAPDH (P04406 whole entry, the tested form may be a part): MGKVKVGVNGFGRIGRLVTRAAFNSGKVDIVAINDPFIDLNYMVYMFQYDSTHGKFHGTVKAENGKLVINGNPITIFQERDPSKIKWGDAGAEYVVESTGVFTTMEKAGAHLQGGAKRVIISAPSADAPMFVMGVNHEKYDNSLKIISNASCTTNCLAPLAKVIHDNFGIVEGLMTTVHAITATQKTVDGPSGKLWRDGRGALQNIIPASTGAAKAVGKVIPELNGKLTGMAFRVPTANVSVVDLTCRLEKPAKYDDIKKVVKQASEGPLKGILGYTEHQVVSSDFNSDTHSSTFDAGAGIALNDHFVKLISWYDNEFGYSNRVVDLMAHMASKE

[3] = Physiological parameters during ischemia/reperfusion; type: in vivo, mouse; settings: 60 nmol GAI-17, during ischemia-reperfusion
[4] = Stability in mouse blood serum; type: in vitro ADME; settings: prediction: endopeptidase cleavage upon peripheral injection; not tested
[5] = tested on: mouse model of AIS induced by transient MCAO; settings: in vivo
mouse GAPDH = mouse GAPDH (Mus musculus, UniProt P16858); assay: In vitro GAPDH aggregation assay with C152A-GAPDH; type: biochemical; settings: mouse GAPDH 0.3 mg/ml + C152A-GAPDH 0-0.75 mg/ml, 37°C 24 h, A405; n = 3
Sequence of mouse GAPDH (P16858 whole entry): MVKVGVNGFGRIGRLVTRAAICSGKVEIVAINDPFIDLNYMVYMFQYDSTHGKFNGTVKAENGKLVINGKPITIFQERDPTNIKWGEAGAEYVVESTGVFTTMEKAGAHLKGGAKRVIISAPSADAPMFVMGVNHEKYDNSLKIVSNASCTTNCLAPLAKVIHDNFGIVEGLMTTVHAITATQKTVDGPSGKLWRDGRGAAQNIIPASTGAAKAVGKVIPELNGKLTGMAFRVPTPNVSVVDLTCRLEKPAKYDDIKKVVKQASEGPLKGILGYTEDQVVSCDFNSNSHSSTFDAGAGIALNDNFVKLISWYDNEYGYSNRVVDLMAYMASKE

Compound: C[C@@H](O)[C@H](NC(=O)[C@H](CS)NC(=O)[C@@H](N)CO)C(=O)O [GAI-17] (H-Ser-Cys-Thr-OH)
- Cerebral blood flow [1]: no changes
- Levels of pyruvate in the brain [2]: did not affect
- inhibition (Human recombinant GAPDH): 97.2 ± 1.88%
- Physiological parameters (MBP, HR, blood PaO2, PaCO2, pH, RT) [3]: no changes
- Stability in mouse blood serum [4]: predicted to be unstable

Compound: C#CCN(C)[C@H](C)Cc1ccccc1 [deprenyl]
- Development of brain infarction caused by MCAO (infarct volume in whole brain) [5]: no significant effect

Compound: human GAPDH-C152A: His-tagged recombinant human GAPDH mutant with Cys-152 substituted to alanine, dominant-negative for aggregation
- Inhibitory effect on mouse GAPDH aggregation in vitro (mouse GAPDH): confirmed in vitro
